Target: T1, PD-1/PD-L1 interaction (Homo sapiens, UniProt Q9NZQ7)
T1 construct: expressed in transfected cells; host or cells: CHO cells (aAPC-PD-L1) co-cultured with Jurkat cells overexpressing PD-1 and an NFAT-luciferase reporter
Assay: PD-1/PD-L1 NFAT reporter co-culture assay
Type: cell-based
Conditions: Jurkat PD-1 NFAT-luciferase cells co-cultured with aAPC-PD-L1 CHO cells, 6 hrs at 37° C.; read-out: EC50 NFAT Luciferase
Outline: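 Compounds are scored by restoration of NFAT-luciferase signal in PD-1-expressing Jurkat cells cultured 6 h at 37 °C on CHO cells presenting anti-CD3 and PD-L1; EC50 values derive from four-parameter curve fitting.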

T1 sequence (Q9NZQ7 19-290): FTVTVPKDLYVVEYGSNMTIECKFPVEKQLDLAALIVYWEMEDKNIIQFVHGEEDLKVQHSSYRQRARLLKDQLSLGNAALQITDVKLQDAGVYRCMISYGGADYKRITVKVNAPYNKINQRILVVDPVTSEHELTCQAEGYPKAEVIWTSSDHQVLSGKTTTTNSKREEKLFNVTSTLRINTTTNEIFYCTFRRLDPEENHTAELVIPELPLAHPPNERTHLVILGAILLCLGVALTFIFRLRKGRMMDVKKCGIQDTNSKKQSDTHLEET

Row | EC50 | Structure (SMILES)
1 | 844 nM | COc1nc(OCc2cccc(-c3cccc(COc4nc(OC)c(CN[C@H]5CCCC[C@H]5O)cc4Cl)c3C)c2C)c(Cl)cc1CN[C@H]1CCCC[C@H]1O [Example 228, (1R,1′R,2S,2′S)-2,2′-((((((2,2′-dimethyl-[1,1′-biphenyl]-3,3′-diyl)bis(methylene))bis(oxy))bis(5-chloro-2-methoxypyridine-6,3-diyl))his(methylene))his(azanediyl))his(cyclohexan-1-ol)]
2 | 1220 nM | COc1nc(OCc2cccc(-c3cccc(COc4nc(OC)c(CN[C@H]5CCCC[C@@H]5O)cc4Cl)c3C)c2C)c(Cl)cc1CN[C@H]1CCCC[C@@H]1O [Example 229, (1S,1′S,2S,2′S)-2,2′-((((((2,2′-dimethyl-[1,1′-biphenyl]-3,3′-diyl)bis(methylene))bis(oxy))bis(5-chloro-2-methoxypyridine-6,3-diyl))bis(methylene))bis(azanediyl))bis(cyclohexan-1-ol)]
3 | 821 nM | COc1nc(OCc2cccc(-c3cccc(COc4nc(OC)c(CN[C@H]5CCC[C@@H]5O)cc4Cl)c3C)c2C)c(Cl)cc1CN[C@H]1CCC[C@@H]1O [Example 230, (1S,1′S,2S,2′S)-2,2′-((((((2,2′-dimethyl-[1,1′-biphenyl]-3,3′-diyl)bis(methylene))bis(oxy))bis(5-chloro-2-methoxypyridine-6,3-diyl))bis(methylene))bis(azanediyl))bis(cyclopentan-1-ol)]
4 | 11600 nM | COc1nc(OCc2cccc(-c3cccc(COc4nc(OC)c(CN5CCOC[C@H]5C(=O)O)cc4Cl)c3C)c2C)c(Cl)cc1CN1CCOC[C@H]1C(=O)O [Example 233, (3S,3′S)-4,4′-(((((2,2′-dimethyl-[1,1′-biphenyl]-3,3′-diyl)bis(methylene))bis(oxy))bis(5-chloro-2-methoxypyridine-6,3-diyl))bis(methylene))bis(morpholine-3-carboxylicacid)]
5 | ≥ 50000 nM | COc1nc(OCc2cccc(-c3cccc(COc4nc(OC)c(CN5CCOC(C(=O)O)C5)cc4Cl)c3C)c2C)c(Cl)cc1CN1CCOC(C(=O)O)C1 (stereo not drawn) [Example 235]
6 | ≥ 50000 nM | COc1nc(OCc2cccc(-c3cccc(COc4nc(OC)c(C(=O)NC[C@@H](O)CC(=O)O)cc4Cl)c3C)c2C)c(Cl)cc1C(=O)NC[C@@H](O)CC(=O)O [Example 237, (3S,3′S)-4,4′-((6,6′-(((2,2′-dimethyl-[1,1′-biphenyl]-3,3′-diyl)bis(methylene))bis(oxy))bis(5-chloro-2-methoxynicotinoyl))bis(azanediyl))bis(3-hydroxybutanoic acid)]

The remaining lines, values behind:

Row | Structure (SMILES) | EC50
7 | COc1nc(OCc2cccc(-c3cccc(COc4nc(OC)c(CN[C@H]5CCC[C@@H](C(=O)O)C5)cc4Cl)c3C)c2C)c(Cl)cc1CN[C@H]1CCC[C@@H](C(=O)O)C1 [Example 184, (1R,1′R,3S,3′S)-3,3′-((((((2,2′-dimethyl-[1,1′-biphenyl]-3,3′-diyl)bis(methylene))bis(oxy))bis(5-chloro-2-methoxypyridine-6,3-diyl))bis(methylene))bis(azanediyl))bis(cyclohexane-1-carboxylic acid)] | 1390 nM
8 | COc1nc(OCc2cccc(-c3cccc(COc4nc(OC)c(CNC[C@@H](O)CC(=O)O)cc4Br)c3Cl)c2Cl)c(Br)cc1CNC[C@@H](O)CC(=O)O [Example 189, (3S,3′S)-4,4′-((((((2,2′-Dichloro-[1,1′-biphenyl]-3,3′-diyl)bis(methylene))bis(oxy))bis(5-bromo-2-methoxypyridine-6,3-diyl))bis(methylene))bis(azanediyl))bis(3-hydroxybutanoic acid)] | 106 nM
9 | COc1nc(OCc2cccc(-c3cccc(COc4nc(OC)c(CNC[C@@H](O)CC(=O)O)cc4Br)c3Cl)c2Cl)ccc1CNC[C@@H](O)CC(=O)O [Example 190, (S)-4-(((6-((3′-(((3-Bromo-5-((((S)-3-carboxy-2-hydroxypropyl)amino)methyl)-6-methoxypyridin-2-yl)oxy)methyl)-2,2′-dichloro-[1,1′-biphenyl]-3-yl)methoxy)-2-methoxypyridin-3-yl)methyl)amino)-3-hydroxybutanoic acid] | 516 nM
10 | N#Cc1cncc(COc2nc(OCc3cccc(-c4cccc(COc5nc(OCc6cncc(C#N)c6)c(CNC[C@@H](O)CC(=O)O)cc5Br)c4Cl)c3Cl)ccc2CNC[C@@H](O)CC(=O)O)c1 [Example 194, (S)-4-(((6-((3′-(((3-Bromo-5-((((S)-3-carboxy-2-hydroxypropyl)amino)methyl)-6-((5-cyanopyridin-3-yl)methoxy)pyridin-2-yl)oxy)methyl)-2,2′-dichloro-[1,1′-biphenyl]-3-yl)methoxy)-2-((5-cyanopyridin-3-yl)methoxy)pyridin-3-yl)methyl)amino)-3-hydroxybutanoic acid] | 1260 nM
11 | N#Cc1cncc(COc2nc(OCc3cccc(-c4cccc(COc5ccc(CNC[C@@H](O)CC(=O)O)c(OCc6cncc(C#N)c6)n5)c4Cl)c3Cl)ccc2CNC[C@@H](O)CC(=O)O)c1 [Example 195, (3S,3′S)-4,4′-((((((2,2′-Dichloro-[1,1′-biphenyl]-3,3′-diyl)bis(methylene))bis(oxy))bis(2-((5-cyanopyridin-3-yl)methoxy)pyridine-6,3-diyl))bis(methylene))bis(azanediyl))bis(3-hydroxybutanoic acid)] | 408 nM
12 | C[C@@](CO)(NCc1cc(Br)c(OCc2cccc(-c3cccc(COc4nc(OCc5cncc(C#N)c5)c(CN[C@@](C)(CO)C(=O)O)cc4Br)c3Cl)c2Cl)nc1OCc1cncc(C#N)c1)C(=O)O [Example 197, (2S,2′S)-2,2′-((((((2,2′-Dichloro-[1,1′-biphenyl]-3,3′-diyl)bis(methylene))bis(oxy))bis(5-bromo-2-((5-cyanopyridin-3-yl)methoxy)pyridine-6,3-diyl))bis(methylene))bis(azanediyl))bis(3-hydroxy-2-methylpropanoic acid)] | 98 nM
13 | Cc1c(COc2cc(OCc3cncc(C#N)c3)c(CNCC(C)(O)CC(=O)O)cc2Cl)cccc1-c1cccc(COc2cc(OCc3cncc(C#N)c3)c(CNCC(C)(O)CC(=O)O)cc2Cl)c1C (stereo not drawn) [Example 218, 4,4′-((((((2,2′-dimethyl-[1,1′-biphenyl]-3,3′-diyl)bis(methylene))bis(oxy))bis(5-chloro-2-((5-cyanopyridin-3-yl)methoxy)-4,1-phenylene))bis(methylene))bis(azanediyl))bis(3-hydroxy-3-methylbutanoic acid)] | 680 nM
14 | COc1nc(OCc2cccc(-c3cccc(COc4nc(OC)c(CN[C@H]5CCC[C@H]5O)cc4Cl)c3C)c2C)c(Cl)cc1CN[C@H]1CCC[C@H]1O [Example 226, (1R,1′R,2S,2′S)-2,2′-((((((2,2′-dimethyl-[1,1′-biphenyl]-3,3′-diyl)bis(methylene))bis(oxy))bis(5-chloro-2-methoxypyridine-6,3-diyl))bis(methylene))bis(azanediyl))bis(cyclopentan-1-ol)] | 775 nM
15 | COc1nc(OCc2cccc(-c3cccc(COc4nc(OC)c(CN[C@@H]5CCC[C@@H]5O)cc4Cl)c3C)c2C)c(Cl)cc1CN[C@@H]1CCC[C@@H]1O [Example 227, (1S,1′S,2R,2′R)-2,2′-((((((2,2′-dimethyl-[1,1′-biphenyl]-3,3′-diyl)bis(methylene))bis(oxy))bis(5-chloro-2-methoxypyridine-6,3-diyl))bis(methylene))bis(azanediyl))bis(cyclopentan-1-ol)] | 615 nM
